{"source": "paper PMC9030691", "about": "“Toxicokinetics of β-Amanitin in Mice and In Vitro Drug–Drug Interaction Potential” (Pharmaceutics, 2022)", "key": {"OATP1B1": {"biological_target": "T1, OATP1B1 (Homo sapiens, UniProt Q9Y6L6)", "T1 construct": "expressed in transfected cells; host or cells: HEK293", "T1 sequence (Q9Y6L6 whole entry)": "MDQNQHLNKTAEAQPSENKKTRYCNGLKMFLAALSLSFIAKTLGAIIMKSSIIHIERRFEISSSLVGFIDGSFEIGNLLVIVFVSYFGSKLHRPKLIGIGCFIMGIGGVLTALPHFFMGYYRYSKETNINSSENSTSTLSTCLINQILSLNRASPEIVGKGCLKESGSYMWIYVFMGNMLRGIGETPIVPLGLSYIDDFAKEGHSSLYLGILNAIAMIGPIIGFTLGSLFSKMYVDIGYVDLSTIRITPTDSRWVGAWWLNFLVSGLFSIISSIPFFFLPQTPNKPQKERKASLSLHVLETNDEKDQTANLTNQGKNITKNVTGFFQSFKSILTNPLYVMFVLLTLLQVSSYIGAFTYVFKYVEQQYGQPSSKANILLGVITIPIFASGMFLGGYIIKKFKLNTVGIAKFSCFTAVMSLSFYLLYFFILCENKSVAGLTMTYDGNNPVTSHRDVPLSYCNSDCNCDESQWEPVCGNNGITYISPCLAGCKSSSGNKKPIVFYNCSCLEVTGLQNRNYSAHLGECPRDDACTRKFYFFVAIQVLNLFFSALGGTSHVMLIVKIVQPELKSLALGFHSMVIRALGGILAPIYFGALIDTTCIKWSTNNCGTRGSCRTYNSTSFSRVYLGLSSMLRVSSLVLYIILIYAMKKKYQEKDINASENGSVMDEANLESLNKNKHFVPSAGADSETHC", "assay": "Uptake of amanitins into HEK293-OATP1B1 cells", "assay_type": "in vitro ADME", "details": "50 μM amanitin, 5 min, 37 °C, HBSS, 20 min preincubation, with and without rifampin 100 μM, LC-HRMS, n = 3", "experimental": "(§1) HEK293 cells overexpressing OCT2, MATE2-K, OAT1, OAT3, OATP1B1, and OATP1B3 transporters and HEK293-control cells were maintained in a humidified atmosphere of 5% CO2 at 37 °C in DMEM supplemented with 10% FBS and 5 mM non-essential amino acids. In the case of HEK293-OATP1B1, -OATP1B3, and MATE2-K cells, 2 mM sodium butyrate was added to the culture medium to enhance transport activity. Cells were seeded at 2 × 10^5 cells/well in poly-D-lysine-coated 24-well plates. After 24 h, the growth medium was discarded, and attached cells were washed with HBSS and preincubated for 20 min in HBSS at 37 °C. Stock solutions of α- and β-amanitin and representative inhibitors of transporters were diluted in HBSS to make the final concentration: cimetidine 1 mM (for OCT2), cimetidine 100 μM (for MATE2-K), probenecid 100 μM (for OAT1 and OAT3), and rifampin 100 μM (for OATP1B1 and OATP1B3). Uptake of 50 μM α- and β-amanitin was measured in the absence and presence of representative inhibitors for 5 min at 37 °C. Plates were placed immediately on ice, and cells were then washed twice with 1 mL of ice-cold HBSS. Residual HBSS was removed thoroughly from the plates. Subsequently, 150 μL of 80% methanol containing IS was added to each sample well, and the cell plates were shaken gently for 20 min at 4 °C. The remaining steps were the same as described for plasma sample preparation."}, "OATP1B3": {"biological_target": "T2, OATP1B3 (Homo sapiens, UniProt Q9NPD5)", "T2 construct": "expressed in transfected cells; host or cells: HEK293", "T2 sequence (Q9NPD5 whole entry)": "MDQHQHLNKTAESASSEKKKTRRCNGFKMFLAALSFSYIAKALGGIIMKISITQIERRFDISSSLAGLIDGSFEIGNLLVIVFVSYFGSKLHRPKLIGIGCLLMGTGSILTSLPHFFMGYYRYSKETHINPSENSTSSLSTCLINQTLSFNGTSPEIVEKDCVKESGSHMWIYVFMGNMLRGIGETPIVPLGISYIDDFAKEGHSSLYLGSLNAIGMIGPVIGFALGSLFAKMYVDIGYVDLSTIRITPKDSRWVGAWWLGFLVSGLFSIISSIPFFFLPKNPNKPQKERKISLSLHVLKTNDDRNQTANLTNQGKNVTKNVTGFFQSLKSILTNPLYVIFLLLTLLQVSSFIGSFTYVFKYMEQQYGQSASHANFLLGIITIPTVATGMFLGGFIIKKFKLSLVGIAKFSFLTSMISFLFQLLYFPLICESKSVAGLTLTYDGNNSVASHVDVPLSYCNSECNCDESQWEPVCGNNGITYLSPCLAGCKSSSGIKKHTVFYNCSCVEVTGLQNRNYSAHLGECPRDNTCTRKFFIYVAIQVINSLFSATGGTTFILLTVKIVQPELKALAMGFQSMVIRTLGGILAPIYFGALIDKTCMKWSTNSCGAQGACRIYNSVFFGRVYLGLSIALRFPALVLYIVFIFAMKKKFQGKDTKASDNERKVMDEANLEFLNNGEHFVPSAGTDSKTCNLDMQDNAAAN", "assay": "Uptake of amanitins into HEK293-OATP1B3 cells", "assay_type": "in vitro ADME", "details": "50 μM amanitin, 5 min, 37 °C, HBSS, 20 min preincubation, with and without rifampin 100 μM, LC-HRMS, n = 3", "experimental": "as §1"}, "OCT2": {"biological_target": "T3, OCT2 (Homo sapiens, UniProt O15244)", "T3 construct": "expressed in transfected cells; host or cells: HEK293", "T3 sequence (O15244 1-555)": "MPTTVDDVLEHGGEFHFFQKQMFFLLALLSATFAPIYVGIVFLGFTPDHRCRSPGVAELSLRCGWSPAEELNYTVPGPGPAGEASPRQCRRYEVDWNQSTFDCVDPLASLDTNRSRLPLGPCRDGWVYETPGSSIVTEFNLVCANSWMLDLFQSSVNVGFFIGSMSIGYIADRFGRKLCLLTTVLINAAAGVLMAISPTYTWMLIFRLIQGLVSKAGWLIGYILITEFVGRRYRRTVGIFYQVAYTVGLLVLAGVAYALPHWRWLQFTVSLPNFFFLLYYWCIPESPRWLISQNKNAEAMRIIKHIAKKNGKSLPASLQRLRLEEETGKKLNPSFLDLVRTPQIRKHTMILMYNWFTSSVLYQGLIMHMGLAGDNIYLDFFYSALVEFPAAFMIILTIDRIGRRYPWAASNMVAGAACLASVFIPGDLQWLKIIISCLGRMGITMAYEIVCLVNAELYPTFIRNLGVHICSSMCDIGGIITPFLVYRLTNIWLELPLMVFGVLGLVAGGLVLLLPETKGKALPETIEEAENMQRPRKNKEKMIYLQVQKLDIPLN", "assay": "Uptake of amanitins into HEK293-OCT2 cells", "assay_type": "in vitro ADME", "details": "50 μM amanitin, 5 min, 37 °C, HBSS, 20 min preincubation, with and without cimetidine, LC-HRMS, n = 3", "experimental": "as §1"}, "MATE2-K": {"biological_target": "MATE2-K (Homo sapiens, UniProt Q86VL8)", "sequence (Q86VL8 1-566 isoform Q86VL8-3)": "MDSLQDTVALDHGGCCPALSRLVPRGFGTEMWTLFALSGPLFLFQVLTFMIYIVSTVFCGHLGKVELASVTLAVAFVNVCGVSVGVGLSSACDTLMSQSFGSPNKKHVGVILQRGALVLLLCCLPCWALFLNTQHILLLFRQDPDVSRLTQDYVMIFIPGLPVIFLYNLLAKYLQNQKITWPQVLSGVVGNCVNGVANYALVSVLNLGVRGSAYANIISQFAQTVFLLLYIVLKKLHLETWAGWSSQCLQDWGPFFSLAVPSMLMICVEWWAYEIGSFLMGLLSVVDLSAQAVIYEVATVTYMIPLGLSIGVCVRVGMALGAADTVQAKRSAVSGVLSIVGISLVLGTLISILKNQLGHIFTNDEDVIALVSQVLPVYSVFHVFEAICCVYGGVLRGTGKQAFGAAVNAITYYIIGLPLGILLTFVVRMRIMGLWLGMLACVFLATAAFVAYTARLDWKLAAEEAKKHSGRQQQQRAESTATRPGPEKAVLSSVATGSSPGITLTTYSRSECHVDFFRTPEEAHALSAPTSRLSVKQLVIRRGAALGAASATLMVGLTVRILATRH", "assay": "Uptake of amanitins into HEK293-MATE2-K cells", "assay_type": "in vitro ADME", "design": "expressed in transfected cells; host or cells: HEK293", "details": "50 μM amanitin, 5 min, 37 °C, HBSS, 20 min preincubation, with and without cimetidine 100 μM, LC-HRMS, n = 3", "experimental": "as §1"}, "[1]": {"details": "humans, cited from earlier work; for Concentration in the kidney of amatoxin-intoxicated patients / Concentration in the liver of amatoxin-intoxicated patients: 4 cases; for Plasma concentrations in amatoxin-intoxicated patients: detected in 11 of 43 patients exposed within 36 h; for Total amount excreted in urine in amatoxin-intoxicated patients: measured in 24 patients out of 35 cases", "experimental": "In humans, the plasma and urinary concentrations of α- and β-amanitin were detected in cases of suspected amatoxin poisoning. Among 43 amatoxin-intoxicated patients, amanitin was detected in 11 patients who were exposed to amatoxin within 36 h. The plasma concentrations were 8–190 ng/mL for α-amanitin and 15.9–162 ng/mL for β-amanitin [26]. The total amount of α- and β-amanitin excreted in urine were measured in 24 patients out of 35 cases, and a highly variable amount of α- and β-amanitin was recovered from the urine: 0.03–3.29 mg for α-amanitin and 0.05–5.21 mg for β-amani ... || The intestinal tract, liver, and kidney are vulnerable to amanitin toxicity and also express drug-metabolizing enzymes and transporters that regulate the absorption, distribution, metabolism, and excretion of endogenous substrates and xenobiotics. […] Inhibition of CYP1A2, CYP2C8, CYP2C9, CYP2C19, and CYP3A4 at 100 μM in HLMs was almos ..."}, "OAT1": {"biological_target": "T4, OAT1 (Homo sapiens, UniProt Q4U2R8)", "T4 construct": "expressed in transfected cells; host or cells: HEK293", "T4 sequence (Q4U2R8 1-563)": "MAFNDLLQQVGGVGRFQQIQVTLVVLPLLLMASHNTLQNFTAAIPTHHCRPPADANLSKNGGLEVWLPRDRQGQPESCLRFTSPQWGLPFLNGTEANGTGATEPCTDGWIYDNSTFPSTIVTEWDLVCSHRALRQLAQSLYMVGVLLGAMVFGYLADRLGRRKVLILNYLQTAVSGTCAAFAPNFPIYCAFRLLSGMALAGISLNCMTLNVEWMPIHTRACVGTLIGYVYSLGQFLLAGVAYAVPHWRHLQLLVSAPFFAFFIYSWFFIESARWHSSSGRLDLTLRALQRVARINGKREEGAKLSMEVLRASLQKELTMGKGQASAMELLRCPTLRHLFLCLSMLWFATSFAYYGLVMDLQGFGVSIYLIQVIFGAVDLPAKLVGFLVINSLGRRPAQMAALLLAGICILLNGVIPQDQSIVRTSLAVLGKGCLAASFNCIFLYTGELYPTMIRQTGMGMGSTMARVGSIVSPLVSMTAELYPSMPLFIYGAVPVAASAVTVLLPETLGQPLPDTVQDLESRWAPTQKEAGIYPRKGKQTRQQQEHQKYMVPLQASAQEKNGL", "assay": "Uptake of amanitins into HEK293-OAT1 cells", "assay_type": "in vitro ADME", "details": "50 μM amanitin, 5 min, 37 °C, HBSS, 20 min preincubation, with and without probenecid, LC-HRMS, n = 3", "experimental": "as §1"}}, "note": "Entries after “also recorded” stand apart in the source; their conditions may differ."}
{"compound": "CC[C@H](C)[C@@H]1NC(=O)CNC(=O)[C@@H]2Cc3c([nH]c4cc(O)ccc34)[S@+]([O-])C[C@H](NC(=O)CNC1=O)C(=O)N[C@@H](CC(=O)O)C(=O)N1C[C@H](O)C[C@H]1C(=O)N[C@@H]([C@@H](C)[C@@H](O)CO)C(=O)N2", "note": "[β-amanitin]", "values": [{"measurement": "Uptake into HEK293-OATP1B1 cells compared with HEK293 control cells (transport substrate)", "setting": "OATP1B1", "value": "significantly increased; also recorded: substrate"}, {"measurement": "Uptake into HEK293-OATP1B3 cells compared with HEK293 control cells (transport substrate)", "setting": "OATP1B3", "value": "significantly increased; also recorded: substrate"}, {"measurement": "Uptake into HEK293-OCT2 cells compared with HEK293 control cells (transport substrate)", "setting": "OCT2", "value": "not involved in the active transport"}, {"measurement": "Uptake into HEK293-MATE2-K cells compared with HEK293 control cells (transport substrate)", "setting": "MATE2-K", "value": "not involved in the active transport"}, {"measurement": "Concentration in the kidney of amatoxin-intoxicated patients", "setting": "[1]", "value": "1017–1391 ng/g kidney"}, {"measurement": "Concentration in the liver of amatoxin-intoxicated patients", "setting": "[1]", "value": "170.8–3298 ng/g liver"}, {"measurement": "Plasma concentrations in amatoxin-intoxicated patients", "setting": "[1]", "value": "15.9 to 162", "unit": "ng/mL"}, {"measurement": "Total amount excreted in urine in amatoxin-intoxicated patients", "setting": "[1]", "value": "0.05 to 5.21", "unit": "mg"}, {"measurement": "Uptake into HEK293-OAT1 cells compared with HEK293 control cells (transport substrate)", "setting": "OAT1", "value": "not involved in the active transport"}]}
{"compound": "α-amanitin [reference compound]", "values": [{"measurement": "Uptake into HEK293-OATP1B1 cells compared with HEK293 control cells (transport substrate)", "setting": "OATP1B1", "value": "significantly increased"}, {"measurement": "Uptake into HEK293-OATP1B3 cells compared with HEK293 control cells (transport substrate)", "setting": "OATP1B3", "value": "significantly increased"}, {"measurement": "Uptake into HEK293-OCT2 cells compared with HEK293 control cells (transport substrate)", "setting": "OCT2", "value": "not involved in the active transport"}, {"measurement": "Uptake into HEK293-MATE2-K cells compared with HEK293 control cells (transport substrate)", "setting": "MATE2-K", "value": "not involved in the active transport"}, {"measurement": "Concentration in the kidney of amatoxin-intoxicated patients", "setting": "[1]", "value": "122–1719 ng/g kidney"}, {"measurement": "Concentration in the liver of amatoxin-intoxicated patients", "setting": "[1]", "value": "10–19 ng/g liver"}, {"measurement": "Plasma concentrations in amatoxin-intoxicated patients", "setting": "[1]", "value": "8 to 190", "unit": "ng/mL"}, {"measurement": "Total amount excreted in urine in amatoxin-intoxicated patients", "setting": "[1]", "value": "0.03 to 3.29", "unit": "mg"}, {"measurement": "Uptake into HEK293-OAT1 cells compared with HEK293 control cells (transport substrate)", "setting": "OAT1", "value": "not involved in the active transport"}]}
